{"source": "patent US4038390A", "about": "“Salts of p-dihydroxybenzene disulfonic acids for combatting hemorrhages and fragility of the capillaries” (Laboratorios del Dr. Esteve, S.A., priority 1972, dated 1977)", "key": {"[1]": {"tested_on": "average bleeding time", "test": "Hemostatic action: average bleeding time, method of ROSKAM modified by LAPORTE, rabbit's ear", "assay_type": "in vivo", "settings": "for DE50: effect and route not given; for Percentage decrease of average bleeding time: one hour after administering", "method": "(§1) The activity for the hemostatic action is determined in vivo, by ROSKAM's method, as modified by LAPORTE, on the rabbit's ear, and the protective action on the capillaries by the method of BEACH and STEINETZ. The therapeutical index (ratio between LD50 and TE50) is very favorable, in view of the high activity and low toxicity."}, "[2]": {"test": "DL50 of some compounds according to the invention (species not stated)", "set-up": "DL50: unit not given beside the values", "settings": "in vivo", "text": "The following table gives the values for DL50 and DE50, as well as proposed doses of some compounds according to the present invention."}, "[3]": {"test": "Acute toxicity in the rat (LD50, method of Reed and Muench)", "settings": "in vivo", "method": "(§2) 1. Acute toxicity in the mouse and the rat\n100 to 150 g Sprague-Dawley rats\n(§3) The LD50 was determined according to the method of Reed and Muench."}, "[4]": {"tested_on": "capillary permeability", "test": "Protective action on capillaries: capillary permeability, modified method of BEACH-STEINITZ", "assay_type": "in vivo", "settings": "mouse", "method": "as §1\nThe action of bis diethylamine p-dihydroxy benzene disulfonate on the capillary permeability for the mouse was determined by the modified method of BEACH-STEINITZ (J. Pharmacol. Exp. Ther. 131 (1), 400, 1961). The product, administered i.p., causes a decrease of the capillary permeability which appears after 8 micromoles/kg, and higher doses, and the maximum effect is attained at a dose of 200 micromoles/kg."}, "[5]": {"test": "Acute toxicity in the mouse (LD50, method of Reed and Muench)", "settings": "in vivo", "method": "as §2, §3"}, "[6]": {"tested_on": "plasma cholesterol, triglyceride, and total lipids levels", "test": "Hypolipedemic action in rats treated with Triton WR-1339", "assay_type": "in vivo, Sprague-Dawley rats"}}, "data": [{"smiles": "O=S(=O)(O)c1cc(O)c(S(=O)(=O)O)cc1O", "note": "[bis (ammonium) p-dihydroxy-benzene disulfonate] [bis (ammonium)-p-dihydroxy benzene disulfonate]", "values": [{"measurement": "DE50", "setting": "[1]", "value": "2,45 μmoles/kg"}]}, {"smiles": "O=S(=O)(O)c1cc(O)c(S(=O)(=O)O)cc1O", "note": "[bis (ammonium)-p-dihydroxy benzene disulfonate]", "values": [{"measurement": "LD50", "setting": "[2]; route not given", "value": 1210, "unit": "mg/kg"}]}, {"smiles": "O=S(=O)(O)c1cc(O)c(S(=O)(=O)O)cc1O", "note": "[bis (piperazine) p-dihydroxy-benzene disulfonate] [bis (piperazine) p-dihydroxy benzene disulfonate]", "values": [{"measurement": "DL50", "setting": "[2]; po", "value": "> 2000"}, {"measurement": "DE50", "setting": "[1]", "value": "1,25 μmoles/kg"}]}, {"smiles": "O=S(=O)(O)c1cc(O)c(S(=O)(=O)O)cc1O", "note": "[bis-diethylamine p-dihydroxy benzene disulfonate] [listing 1 of 2 here]", "values": [{"measurement": "LD50", "setting": "[3]; ip, I.P., rat female", "value": 2440, "unit": "mg/kg"}, {"measurement": "LD50", "setting": "[3]; ip, I.P., rat male", "value": 2650, "unit": "mg/kg"}, {"measurement": "LD50", "setting": "[3]; po, rat female", "value": 4680, "unit": "mg/kg"}, {"measurement": "LD50", "setting": "[3]; po, rat male", "value": 5840, "unit": "mg/kg"}, {"measurement": "ED (maximum effect)", "setting": "[4]; ip, read-out: dose at which maximum effect on capillary permeability is attained", "value": 200, "unit": "µmol/kg"}, {"measurement": "minimal effective dose", "setting": "[4]; ip, read-out: dose from which decrease of the capillary permeability appears", "value": "≥ 8", "unit": "µmol/kg"}, {"measurement": "LD50", "setting": "[5]; iv, I.V., mouse female", "value": 1020, "unit": "mg/kg"}, {"measurement": "LD50", "setting": "[5]; iv, I.V., mouse male", "value": 1020, "unit": "mg/kg"}, {"measurement": "LD50", "setting": "[5]; po, mouse female", "value": 5880, "unit": "mg/kg"}, {"measurement": "LD50", "setting": "[5]; po, mouse male", "value": 6290, "unit": "mg/kg"}]}, {"smiles": "O=S(=O)(O)c1cc(O)c(S(=O)(=O)O)cc1O", "note": "[bis-diethylamine p-dihydroxy benzene disulfonate] [listing 2 of 2 here]", "values": [{"measurement": "FREE CHOLESTEROL (plasma)", "setting": "[6]; Triton + compound, Triton alone 60.5 ± 2.5", "value": "54.4 ± 3.9", "unit": "mg %"}, {"measurement": "TOTAL CHOLESTEROL (plasma)", "setting": "[6]; Triton + compound, Triton alone 238.4 ± 6.5", "value": "223.0 ± 15.1", "unit": "mg %"}, {"measurement": "TRIGLYCERIDES (plasma)", "setting": "[6]; Triton + compound, Triton alone 773.5 ± 59.1", "value": "589.5 ± 57.9", "unit": "mg %"}, {"measurement": "TOTAL LIPIDS (plasma)", "setting": "[6]; Triton + compound, Triton alone 2466.9 ± 141.2", "value": "2001.9 ± 193.7", "unit": "mg %"}, {"measurement": "effect on increase of plasma cholesterol, triglyceride, and total lipids levels (in words)", "setting": "[6]; Triton WR-1339 treated rats", "value": "significantly inhibits the increase"}, {"measurement": "Percentage decrease of average bleeding time", "setting": "[1]; 0.625 micromoles/kg", "value": 8.5, "unit": "%"}, {"measurement": "Percentage decrease of average bleeding time", "setting": "[1]; 1.25 micromoles/kg", "value": 19.5, "unit": "%"}, {"measurement": "Percentage decrease of average bleeding time", "setting": "[1]; 2.5 micromoles/kg", "value": 32.0, "unit": "%"}, {"measurement": "duration of effect on bleeding time (in words)", "setting": "[1]; 5 micromoles/kg", "value": "long lasting"}, {"measurement": "% decrease of average bleeding time", "setting": "[1]; 5 micromoles/kg, 1 hour after i.v. administration", "value": 43.0, "unit": "%"}, {"measurement": "% decrease of average bleeding time", "setting": "[1]; 5 micromoles/kg, 2 hours after i.v. administration", "value": 46.8, "unit": "%"}, {"measurement": "% decrease of average bleeding time", "setting": "[1]; 5 micromoles/kg, 4 hours after i.v. administration", "value": 42.0, "unit": "%"}, {"measurement": "% decrease of average bleeding time", "setting": "[1]; 5 micromoles/kg, 8 hours after i.v. administration", "value": 33.5, "unit": "%"}, {"measurement": "% decrease of average bleeding time", "setting": "[1]; 5 micromoles/kg, 16 hours after i.v. administration", "value": 32.0, "unit": "%"}, {"measurement": "% decrease of average bleeding time", "setting": "[1]; 5 micromoles/kg, 24 hours after i.v. administration", "value": 21.0, "unit": "%"}, {"measurement": "Percentage decrease of average bleeding time", "setting": "[1]; 5.0 micromoles/kg", "value": 43.0, "unit": "%"}, {"measurement": "Percentage decrease of average bleeding time", "setting": "[1]; 7.05 micromoles/kg", "value": 51.0, "unit": "%"}, {"measurement": "Percentage decrease of average bleeding time", "setting": "[1]; 10.0 micromoles/kg", "value": 50.0, "unit": "%"}, {"measurement": "DE50", "setting": "[1]", "value": "2,25 μmoles/kg"}, {"measurement": "effect on bleeding time (in words)", "setting": "[1]; rabbit", "value": "produces a decrease of the bleeding time"}, {"measurement": "dose dependence of decrease of capillary permeability (in words)", "setting": "[4]; i.p., intermediate doses (8 to 200 micromoles/kg)", "value": "effects proportional to the logarithm of the dose"}]}, {"smiles": "O=S(=O)(O)c1cc(O)c(S(=O)(=O)O)cc1O", "note": "[calcium p-dihydroxybenzene-disulfonate, calcium p-dihydroxy benzene disulfonate]", "values": [{"measurement": "DL50", "setting": "[2]; po", "value": "> 6880"}, {"measurement": "DE50", "setting": "[1]", "value": "0,98 μmoles/kg"}]}, {"smiles": "O=S(=O)(O)c1cc(O)c(S(=O)(=O)O)cc1O", "note": "[lithium p-dihydroxybenzene-disulfonate, lithium p-dihydroxy benzene disulfonate]", "values": [{"measurement": "DL50", "setting": "[2]; iv", "value": 2186}, {"measurement": "DE50", "setting": "[1]", "value": "0,90 μmoles/kg"}]}]}
